The test system of assay [1] is RKO (RKOp27) human colon adenocarcinoma cells. The assay is described as follows: Alamar Blue cell viability assay, anti-proliferative/cytotoxic activity on proliferating (uninduced) RKO p27 cells. It counts as cell-based. The following applies: RKOp27, 72 h, proliferating cells without inducer Ponasterone A. On the procedure: The anti-proliferative/cytotoxic activity of the compounds described herein, can be tested on subclones of RKO (RKOp27) human colon adenocarcinoma cells (Schmidt et al., Oncogene 19, 2423-2429; 2000) using the Alamar Blue cell viability assay (described in O'Brien et al. Eur J Biochem 267, 5421-5426, 2000). The compounds are dissolved as 20 mM solutions in dimethylsulfoxide (DMSO) and subsequently diluted in semi-logarithmic steps. DMSO dilutions are further diluted 1:100 into Dulbecco's modified Eagle's medium (DMEM) containing 10% fetal calf serum to a final concentration twice as much as the final concentration in the test. RKO subclones are seeded into 96 well flat bottom plates at a density of 4000 cells per well in a volume of 50 μl per well. 24 hours after seeding the 50 μl each of the compound dilutions in DMEM medium are added into each well of the 96 Well plate. Each compound dilution is tested as quadruplicates. Wells containing untreated control cells are filled with 50 μl DMEM medium containing 1% DMSO. The cells are then incubated with the substances for 72 hours at 37° C. in a humidified atmosphere containing 5% carbon dioxide. To determine the viability of the cells, 10 μl of an Alamar Blue solution (Biosource) are added and the fluorescence is measured at an extinction of 544 nm and an emission of 590 nm. For the calculation of the cell viability the emission value from untreated cells is set as 100% viability and the emission rates of treated cells are set in relation to the values of untreated cells. Viabilities are expressed as % values.
The corresponding IC50 values of the compounds for anti-proliferative/cytotoxic activity are determined from the concentration-effect curves.
Representative IC50 values for anti-proliferation/cytotoxicity determined in the mentioned assay follow from the following table A, in which the numbers of the compound correspond to the numbers of the examples.
A general note: The colour change of resazurin is a common sign of viable cells or microbes.

The test system of assay [2] is RKOp27 colon adenocarcinoma cells arrested by expression of ectopic p27Kip1. Kind of assay: Alamar Blue cell viability assay on RKO p27 cells arrested by Ponasterone A induced p27Kip1 (cell cycle specific mode of action). It counts as cell-based. The following applies: Homo sapiens, 72 hours, cells arrested by p27Kip1 induced with 10 μM Ponasterone A. On the procedure: To determine the cell cycle specific mode of action, subclones of RKO colon adenocarcinoma cells (RKOp27 or RKOp21 as described by Schmidt et al. in Oncogene 19, 2423-2429; 2000) are seeded into 96 well flat bottom plates at a density of 16000 cells per well in a volume of 50 μl per well in DMEM growth medium with 10% FCS containing 10 μM Ponasterone A. 24 hours after seeding the 50 μl each of the compound dilutions in DMEM medium are added into each well of the 96 Well plate. Each compound dilution is tested as quadruplicates. Wells containing untreated control cells are filled with 50 μl DMEM medium containing 1% DMSO. The cells are then incubated with the substances for 72 hours at 37° C. in a humidified atmosphere containing 5% carbon dioxide. To determine the viability of the cells, 10 μl of an Alamar Blue solution (Biosource) are added and the fluorescence was measured at an extinction of 544 nm and an emission of 590 nm. For the calculation of the cell viability the emission value from untreated cells is set as 100% viability and the emission rates of treated cells are set in relation to the values of untreated cells. Viabilities are expressed as % values. Viability is compared of proliferating cells grown in the absence of the inducer Ponasterone A, versus viability of cells arrested by the expression of ectopic p27Kip1 induced by Ponasterone A.

For orientation: IC50 means the midpoint of a concentration-inhibition curve. Low readings indicate higher potency, high ones lower potency.

`CCOc1ccccc1CCC(=O)Nc1sc2c(c1C#N)CCN(C(=O)OCC(O)CO)C2` (centres unmarked) [Example 33, 3-Cyano-2-[3-(2-ethoxy-phenyl)-propanoylamino]-4,7-dihydro-5H-thieno[2,3-c]pyridine-6-carboxylic acid 2,3-dihydroxy-propyl ester]: the 50% inhibitory concentration (IC50) in assay [1] is not above 0.3 µM; in assay [2], more than 100 µM.

As for `COc1ccccc1CCC(=O)Nc1sc2c(c1C#N)CCN(C(=O)OCC(=O)O)C2` [Example 153, 3-Cyano-2-[3-(2-methoxy-phenyl)-propanoylamino]-4,7-dihydro-5H-thieno[2,3-c]pyridine-6-carboxylic acid carboxymethyl ester], the IC50 in assay [1] is 0.3 to 2 µM; in assay [2] it was more than 100 µM.

As to `COc1ccc(C)cc1CCC(=O)Nc1sc2c(c1C#N)CCN(C(=O)OCCn1ccnc1C)C2` [Example 131, 3-Cyano-2-[3-(2-methoxy-5-methyl-phenyl)-propanoylamino]-4,7-dihydro-5H-thieno[2,3-c]pyridine-6-carboxylic acid 2-(2-methyl-imidazol-1-yl)-ethyl ester], the IC50 in assay [1] is not above 0.3 µM; in assay [2] it was not below 40 µM.

With `CCOc1ccccc1CCC(=O)Nc1sc2c(c1C#N)CCN(C(=O)OCC1COC(C)(C)O1)C2` (centres unmarked) [Example 20, 3-Cyano-2-[3-(2-ethoxy-phenyl)-propanoylamino]-4,7-dihydro-5H-thieno[2,3-c]pyridine-6-carboxylic acid 2,2-dimethyl-[1,3]dioxolan-4-ylmethyl ester], the IC50 in assay [1] was not above 0.3 µM; in assay [2], more than 100 µM.

As for `COc1ccc(OC)c(CCC(=O)Nc2sc3c(c2C#N)CCN(C(=O)OCCc2ccccn2)C3)c1` [Example 55, 3-Cyano-2-[3-(2,5-dimethoxy-phenyl)-propanoylamino]-4,7-dihydro-5H-thieno[2,3-c]pyridine-6-carboxylic acid 2-pyridin-2-yl-ethyl ester], the concentration for half-maximal inhibition (IC50) in assay [1] is 0.3 to 2 µM; in assay [2], more than 100 µM.

Regarding `CCOc1ccccc1CCC(=O)Nc1sc2c(c1C#N)CCN(C(=O)OCc1ccncc1)C2` [Example 43, 3-Cyano-2-[3-(2-ethoxy-phenyl)-propanoylamino]-4,7-dihydro-5H-thieno[2,3-c]pyridine-6-carboxylic acid pyridin-4-ylmethyl ester], the half-maximal inhibitory concentration (IC50) in assay [1] was not above 0.3 µM; in assay [2], not below 40 µM.

Regarding `COc1ccc(C)cc1CCC(=O)Nc1sc2c(c1C#N)CCN(C(=O)OCC(O)CO)C2` (centres unmarked) [Example 52, 3-Cyano-2-[3-(2-methoxy-5-methyl-phenyl)-propanoylamino]-4,7-dihydro-5H-thieno[2,3-c]pyridine-6-carboxylic acid 2,3-dihydroxy-propyl ester], the concentration for half-maximal inhibition (IC50) in assay [1] is 0.3 to 2 µM; in assay [2], more than 100 µM.

For `CCOc1ccccc1CCC(=O)Nc1sc2c(c1C#N)CCN(C(=O)OCCOCc1ccccc1)C2` [Example 21, 3-Cyano-2-[3-(2-ethoxy-phenyl)-propanoylamino]-4,7-dihydro-5H-thieno[2,3-c]pyridine-6-carboxylic acid 2-benzyloxy-ethyl ester], the IC50 is 0.3 to 2 µM in assay [1] and more than 100 µM in assay [2].

For the compound `COc1ccccc1CCC(=O)Nc1sc2c(c1C#N)CCN(C(=O)OCc1ccncc1)C2` [Example 28, 3-Cyano-2-[3-(2-methoxy-phenyl)-propanoylamino]-4,7-dihydro-5H-thieno[2,3-c]pyridine-6-carboxylic acid pyridin-4-ylmethyl ester], the IC50 in assay [1] was not above 0.3 µM; in assay [2], more than 100 µM.

In the case of `CCOC(=O)N1CCc2c(sc(NC(=O)CCc3cccc([N+](=O)[O-])c3)c2C#N)C1` [Example 4, 3-Cyano-2-[3-(3-nitro-phenyl)-propanoylamino]-4,7-dihydro-5H-thieno[2,3-c]pyridine-6-carboxylic acid ethyl ester], the 50% inhibitory concentration (IC50) in assay [1] was not above 0.3 µM; in assay [2], more than 100 µM.

Values taken from patent US7741488B2, “Tetrahydropyridothiophenes as antiproliferative agents for the treatment of cancer” (4SC AG, priority 2005, dated 2010).
